Tested on: human umbilical vein endothelial cells
Experiment: Proliferation of human umbilical vein endothelial cells by MTT assay
Format: cell-based
Details: Table 4, 48 hours
Method: A growth factor, VEGF, or notoginsenoside R1, etc. were used as control groups to screen a plant extract for promoting proliferation of vein endothelial cells and estimating activity of the plant extract. The experimental method is described as follows. Human umbilical vein endothelial cells were inoculated in a 96 well plate coated with gelatin with a density of 5×10^3 cells/well, and cultured with M199 complete medium in a 37° C. incubator with 5% CO2 overnight. The next day, the medium in the 96 well plate was changed to a medium containing a test plant extract with a specific concentration and a fresh 5% serum without ECGS, and then the culture plate was incubated. After 48 hours, activity of cells in the culture plate were analyzed by MTT assay and quantitated to obtain the information of the-functional specice of plant, the best part of the plant and the best extraction method for the plant for promoting the proliferation of human umbilical vein endothelial cells.
The extract of whole plants of Sambucus formosana Nakai (Herb 1) and the extract of roots of Isatis indigotica Fort. (Herb 2) were diluted 10-fold from 100 μg/mL which was an effective concentration from the primary screening to 0.1 μg/mL to determine the effective range and dose-response of the herbal extracts. The results of the proliferation assay for cells treated with different single-plant extracts are shown in FIG. 1A and Table 4, the results of the activity assay for cells treated with a combination of plant extracts are shown in FIG. 1B and Table 5, and the results of the proliferation assay for cells treated with extracts of specific parts of the plant are shown in FIG. 1C and Table 6. The two kinds of herbs with a concentration of 100 μg/mL have significant effects for promoting growth of vein endothelial cells, and are capable of achieving a promoting effect equivalent to that of VEGF.

Compound	Cell growth rate (%) (mean ± standard deviation) (0.005 μM)	Cell growth rate (%) (mean ± standard deviation) (0.05 μM)	Cell growth rate (%) (mean ± standard deviation) (0.5 μM)	Cell growth rate (%) (mean ± standard deviation) (5 μM)	Cell growth rate (%) (mean ± standard deviation) (0.05 μg/mL)	Cell growth rate (%) (mean ± standard deviation) (0.5 μg/mL)	Cell growth rate (%) (mean ± standard deviation) (5 μg/mL)	Cell growth rate (%) (mean ± standard deviation) (50 μg/mL)
C=CCSSCC=C [Diallyl disulfide (DADS), Diallyl disulfide]	107 ± 6%	110 ± 2%	101 ± 9%	108 ± 4%				
C=CCSCC=C [Diallyl sulfide (DAS), Diallyl sulfide]	113 ± 12%	123 ± 11%	108 ± 2%	148 ± 1%				
CC(C)=CCC[C@](C)(O[C@@H]1O[C@H](CO)[C@@H](O)[C@H](O)[C@H]1O)[C@H]1CC[C@]2(C)[C@@H]1[C@H](O)C[C@@H]1[C@@]3(C)CC[C@H](O)C(C)(C)[C@@H]3[C@@H](O[C@@H]3O[C@H](CO)[C@@H](O)[C@H](O)[C@H]3O[C@@H]3OC[C@@H](O)[C@H](O)[C@H]3O)C[C@]12C [Notoginsenoside R1]					118 ± 5%	95 ± 9%	107 ± 18%	91 ± 4%

Reference: US20130287873A1, “PHARMACEUTICAL COMPOSITION AND METHOD FOR PREPARING A MEDICATION FOR PROMOTING WOUND HEALING” (INDUSTRIAL TECHNOLOGY RESEARCH INSTITUTE, priority 2012, published 2013)
